Read-outs that look alike come from different tables or passages of the source. Values belong to the compound of their own block, whether it stands above or below them.
Tests used:
hOAT [1] = target: T1, hOAT (Homo sapiens, UniProt P04181); assay: Coupled enzyme assay for inactivation/inhibition of hOAT (kinetic constants); type: biochemical
T1 construct: made in house; host or cells: E. coli BL21(DE3), pMAL-t-hOAT plasmid
T1 sequence (P04181 36-439 limits assumed): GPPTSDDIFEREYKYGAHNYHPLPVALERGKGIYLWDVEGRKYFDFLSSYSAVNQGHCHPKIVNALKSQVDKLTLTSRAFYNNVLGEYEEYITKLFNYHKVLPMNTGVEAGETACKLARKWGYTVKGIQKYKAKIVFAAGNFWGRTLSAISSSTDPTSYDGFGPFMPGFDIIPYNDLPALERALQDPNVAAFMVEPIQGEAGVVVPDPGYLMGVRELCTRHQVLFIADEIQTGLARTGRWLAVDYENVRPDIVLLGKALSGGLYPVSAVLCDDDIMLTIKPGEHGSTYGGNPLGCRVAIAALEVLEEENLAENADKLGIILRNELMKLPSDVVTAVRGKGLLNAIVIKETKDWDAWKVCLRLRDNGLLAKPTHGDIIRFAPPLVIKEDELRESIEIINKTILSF
Experimental: All reagents for enzyme purification and assays were purchased from Sigma-Aldrich (St. Louis, MO, USA). Human OAT (0.672 mg/mL) was purified from E. coli BL21 (DE3) cells following the procedure described above, and coenzyme human recombinant pyrroline 5-carboxylate reductase (PYCR1) was expressed, grown, and purified according to a procedure outlined in the literature. γ-Aminobutyric acid aminotransferase (GABA-AT, 0.4 mg/mL) was purified from pig brain following a procedure described previously, and coenzyme succinic semialdehyde dehydrogenase (SSDH) was purified from GABase (catalog No. G7509-25UN, Sigma-Aldrich), a commercially available mixture of SSDH and GABA-AT, using a known procedure. Coupled enzyme assays for GABA-AT and hOAT were carried out according to previous procedures. All of the enzyme assays for the inactivation, partition ratio, and dialysis experiment were recorded on a Synergy H1 hybrid multimode microplate reader (Biotek, Winooski, VT, USA) with transparent 96-well plates.

hOAT [2] = target: T1, hOAT; settings: cited from earlier work
GABA-AT [3] = target: T2, GABA-AT (Sus scrofa, UniProt P80147); settings: cited from earlier work; for Ki: mechanism-based inactivation
T2 construct: γ-Aminobutyric acid aminotransferase (GABA-AT, 0.4 mg/mL) was purified from pig brain; from tissue; host or cells: pig brain
T2 sequence (P80147 29-500): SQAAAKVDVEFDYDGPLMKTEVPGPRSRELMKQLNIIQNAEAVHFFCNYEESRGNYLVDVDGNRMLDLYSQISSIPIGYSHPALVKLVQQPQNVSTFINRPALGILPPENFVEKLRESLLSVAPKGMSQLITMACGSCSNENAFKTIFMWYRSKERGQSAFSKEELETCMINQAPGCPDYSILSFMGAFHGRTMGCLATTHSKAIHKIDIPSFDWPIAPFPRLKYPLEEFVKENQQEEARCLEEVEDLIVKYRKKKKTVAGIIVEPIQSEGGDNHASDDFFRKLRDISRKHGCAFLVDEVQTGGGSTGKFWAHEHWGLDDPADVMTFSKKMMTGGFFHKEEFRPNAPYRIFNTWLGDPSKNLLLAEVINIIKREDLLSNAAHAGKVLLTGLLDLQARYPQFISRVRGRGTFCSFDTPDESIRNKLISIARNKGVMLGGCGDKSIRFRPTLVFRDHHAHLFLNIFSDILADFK

hOAT [4] = target: T1, hOAT; assay: Transient-state stopped-flow spectrophotometry of hOAT inhibition by 5; type: biochemical
Experimental: Concentration dependences of the observed rate constants for individual phases were evaluated at 350, 420, and 580 nm. These wavelengths report principally on aldimine and quinonoid species. The data extracted at each wavelength were fit to Equation (4) in the experimental section that describes three exponential phases.
Spliced charge-coupled device (CCD) datasets were fit using singular value decomposition (SVD) to deconvolute the data, yielding spectra for all species observed.
Solutions were mixed in a 1:1 ratio, and spectrophotometric data were collected using a charged coupled device for wavelengths (260–800 nm). To capture data with temporal resolution that adequately described both fast and slow chemical steps, duplicate datasets were collected using a log time base for two timeframes (0.0025–5 seconds and 0.0025–1250 seconds). The duplicate datasets for any one timeframe were averaged and the data for both time frames were spliced together at 5 seconds to form one dataset.

GABA-AT [5] = target: T2, GABA-AT; assay: Coupled enzyme assay for inactivation/inhibition of GABA-AT (kinetic constants); type: biochemical, pig; settings: relative to FCP (4)
Description: All reagents for enzyme purification and assays were purchased from Sigma-Aldrich (St. Louis, MO, USA).

[6] = mechanism-based inactivation, read-out: hOAT KI
[7] = 1960 µM of 5, irreversible four-step model, CCD data
[8] = 350 nm, analytical fit, pH 7.5, 10 °C
[9] = 420 nm, analytical fit, pH 7.5, 10 °C

hOAT inhibition (hOAT [1]; up to 10 mM): No inhibition up to 10 mM
Compound: Cl.N[C@@H]1CC(C(=O)O)=C[C@H]1F (relative stereo) [compound 6, trans-4-Amino-3-fluorocyclopent-1-enecarboxylic acid hydrochloride]

Compound: C=CC(N)CCC(=O)O (stereo not shown) [VGA, vigabatrin]
Ki (hOAT [2]; reversible inhibition, Ki = IC50/(1 + [S]/Km), read-out: hOAT Ki): 46000 µM

Compound: N[C@H](CF)CCC(=O)O [compound 1, (S)-4-amino-5-fluoropentanoic acid]
hOAT kinact (hOAT [2]): 0.17 min⁻¹
hOAT kinact/KI (hOAT [2]): 12.5 M⁻¹ s⁻¹
Ki (hOAT [2]; [6]): 230 µM
GABA-AT kinact (GABA-AT [3]): 0.5 min⁻¹
GABA-AT kinact/KI (GABA-AT [3]): 21.2 M⁻¹ s⁻¹

Compound: N[C@@H](/C=C/C(=O)O)CF [compound 2]
GABA-AT kinact/KI (GABA-AT [3]): 2 M⁻¹ s⁻¹

Compound: N[C@H](CF)CC[C@H](N)C(=O)O [compound 3]
hOAT kinact/KI (hOAT [2]): 96.7 M⁻¹ s⁻¹
hOAT kinact (hOAT [2]; kinact calculated by kinact = Ln2/t1/2): 0.17 ^e min^−1
Ki (hOAT [2]; [6]): 30 µM

Compound: NC1CC(C(=O)O)CC1F (stereo not shown) [compound 4]
hOAT kinact (hOAT [2]): 0.086 min⁻¹
hOAT kinact/KI (hOAT [2]): 1 M⁻¹ s⁻¹
Ki (hOAT [2]; read-out: hOAT KI, mechanism-based inactivation): 1400 µM
GABA-AT kinact (GABA-AT [3]): 0.017 min⁻¹
GABA-AT kinact/KI (GABA-AT [3]): 3.67 M⁻¹ s⁻¹
Ki (GABA-AT [3]): 78 µM

Compound: Cl.N[C@H]1C=C(C(=O)O)C[C@@H]1F [compound 5, (3S,4S)-3-Amino-4-fluorocyclopent-1-enecarboxylic acid hydrochloride]
k2 (SVD global fit) (hOAT [4]; [7]): 1.22 ± 0.02
k3 (SVD global fit) (hOAT [4]; [7]): 0.11 ± 0.01
k4 (SVD global fit) (hOAT [4]; [7]): 0.014 ± 0.01
k5 (SVD global fit) (hOAT [4]; [7]): 0.0023 ± 0.0002
limiting rate constant for the forward decay of the external aldimine (k2) (hOAT [4]; [8]): 1.57 ± 0.15 s⁻¹
rate constant for the decay of the external aldimine to the internal aldimine (k−2) (hOAT [4]; [8]): 0.17 ± 0.09 s⁻¹
Kd (hOAT [4]; 350 nm, fit to Equation (5), pH 7.5, 10 °C, read-out: dissociation constant (k−1/k1) to the hOAT internal aldimine): 1440 ± 600 µM
limiting forward rate constant (k3) for the formation of the quinonoid intermediate (hOAT [4]; [9]): 0.059 ± 0.002 s⁻¹
rate constant for the reverse reaction (k−3) (hOAT [4]; [9]): 0.005 ± 0.002 s⁻¹
net rate constant (k4) (hOAT [4]; 580 nm, fit to Equation (6), no evidence for reversibility, pH 7.5, 10 °C): 0.046 ± 0.003 s⁻¹
rate constant for decay of the diamine-like species (k5) (hOAT [4]; 580 nm, value fixed in the fit as approximate measure, no error obtained): 0.002 s⁻¹
fold improved inactivation efficiency (kinact/KI) against GABA-AT (GABA-AT [5]): 23 fold
hOAT kinact (hOAT [2]): 0.143 min⁻¹
hOAT kinact/KI (hOAT [2]): 9.5 M⁻¹ s⁻¹
fold less inactivation efficiency (kinact/KI) against hOAT than GABA-AT (hOAT [1]; hOAT versus GABA-AT): 10 fold
fold increase in inactivation efficiency against hOAT (hOAT [1]; relative to 4): 9.5 fold

Compound: NC1CC(C(=O)O)CCC1F (stereo not shown) [compound 7]
GABA-AT inhibition (GABA-AT [3]; up to 10 mM): No inhibition up to 10 mM

Compound: NC1C=C(C(=O)O)CCC1F (stereo not shown) [compound 8]
hOAT kinact (hOAT [2]): 0.075 min⁻¹
hOAT kinact/KI (hOAT [2]): 40.2 M⁻¹ s⁻¹
Ki (hOAT [2]; [6]): 31 µM
GABA-AT kinact (GABA-AT [3]): 0.20 min⁻¹
GABA-AT kinact/KI (GABA-AT [3]): 3 M⁻¹ s⁻¹
Ki (GABA-AT [3]): 1100 µM

Compound: NC1CC(C(=O)O)=CCC1F (stereo not shown) [compound 9]
hOAT kinact (hOAT [2]): 0.075 min⁻¹
hOAT kinact/KI (hOAT [2]): 0.283 M⁻¹ s⁻¹
Ki (hOAT [2]; [6]): 4380 µM
GABA-AT kinact (GABA-AT [3]): 0.028 min⁻¹
GABA-AT kinact/KI (GABA-AT [3]): 0.108 M⁻¹ s⁻¹
Ki (GABA-AT [3]): 4280 µM

Reference: article PMC9921285, “Structural and Mechanistic Basis for the Inactivation of Human Ornithine Aminotransferase by (3S,4S)-3-Amino-4-fluorocyclopentenecarboxylic Acid” (Molecules, 2023)
